# In paper PMC3446790 (Cellular signalling, 2010):
# Entries after “also recorded” stand apart in the source; their conditions may differ.
# Assays:
# S1P1 [1] = target: T1, S1P1 (Homo sapiens, UniProt P21453); assay: Ca2+ mobilization; type: cell-based; conditions: Ca2+ mobilization, concentrations up to 10 μM
# S1P2 [2] = target: T2, S1P2 (Homo sapiens, UniProt O95136); assay: Ca2+ mobilization; type: cell-based; conditions: concentrations up to 10 μM
# S1P3 [3] = target: T3, S1P3 (Homo sapiens, UniProt Q99500); assay: Ca2+ mobilization; type: cell-based; conditions: Ca2+ mobilization, concentrations up to 10 μM
# T3 sequence (Q99500 whole entry, species assumed): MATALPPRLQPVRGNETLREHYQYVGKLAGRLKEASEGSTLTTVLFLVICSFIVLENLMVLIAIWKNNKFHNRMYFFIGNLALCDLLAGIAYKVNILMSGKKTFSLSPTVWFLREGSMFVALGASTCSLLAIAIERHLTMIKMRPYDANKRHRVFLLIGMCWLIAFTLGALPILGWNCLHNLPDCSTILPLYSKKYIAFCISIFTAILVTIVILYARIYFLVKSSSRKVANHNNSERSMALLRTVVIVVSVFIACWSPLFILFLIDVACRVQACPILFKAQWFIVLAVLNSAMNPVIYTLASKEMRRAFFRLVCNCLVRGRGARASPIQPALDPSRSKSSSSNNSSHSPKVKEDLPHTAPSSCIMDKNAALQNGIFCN
# S1P4 [4] = target: T4, S1P4 (Homo sapiens, UniProt O95977); assay: Ca2+ mobilization; type: cell-based; conditions: Ca2+ mobilization, concentrations up to 10 μM
# T4 sequence (O95977 1-384): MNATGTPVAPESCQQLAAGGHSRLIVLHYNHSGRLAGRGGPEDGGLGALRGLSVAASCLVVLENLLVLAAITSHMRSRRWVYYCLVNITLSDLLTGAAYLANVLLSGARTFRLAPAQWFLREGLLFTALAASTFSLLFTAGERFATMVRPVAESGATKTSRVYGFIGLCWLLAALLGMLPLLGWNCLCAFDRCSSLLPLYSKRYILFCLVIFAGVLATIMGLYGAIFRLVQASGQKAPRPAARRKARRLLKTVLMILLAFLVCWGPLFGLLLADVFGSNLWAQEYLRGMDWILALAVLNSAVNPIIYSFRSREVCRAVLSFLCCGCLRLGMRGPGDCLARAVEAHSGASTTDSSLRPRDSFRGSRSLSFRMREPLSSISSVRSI
# S1P5 [5] = target: T5, S1P5 (Homo sapiens, UniProt Q9H228); assay: Ca2+ mobilization; type: cell-based; conditions: concentrations up to 10 μM
# T5 sequence (Q9H228 whole entry, species assumed): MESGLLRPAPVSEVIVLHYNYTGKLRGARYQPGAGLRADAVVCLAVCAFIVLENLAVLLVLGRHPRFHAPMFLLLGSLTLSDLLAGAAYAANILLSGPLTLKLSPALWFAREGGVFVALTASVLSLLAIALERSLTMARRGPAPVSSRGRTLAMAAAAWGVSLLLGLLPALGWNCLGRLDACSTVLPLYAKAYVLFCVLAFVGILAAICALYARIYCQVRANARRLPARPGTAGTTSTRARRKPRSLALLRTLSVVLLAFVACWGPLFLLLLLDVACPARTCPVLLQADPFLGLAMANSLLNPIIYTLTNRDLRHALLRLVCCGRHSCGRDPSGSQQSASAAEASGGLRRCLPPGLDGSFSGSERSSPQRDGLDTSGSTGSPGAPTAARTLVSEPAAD
# S1P1 [6] = target: T1, S1P1; assay: Antagonism of S1P-induced Ca2+ mobilization in S1P1-expressing HTC4 cells; type: cell-based
# S1P2 [7] = target: T2, S1P2; assay: Antagonism of S1P-induced Ca2+ mobilization in S1P2-expressing HTC4 cells; type: cell-based
# S1P3 [8] = target: T3, S1P3; assay: Antagonism of S1P-induced Ca2+ mobilization in S1P3-expressing HTC4 cells; type: cell-based
# S1P4 [9] = target: T4, S1P4; assay: Antagonism of S1P-induced Ca2+ mobilization in S1P4-expressing HTC4 cells; type: cell-based
# S1P5 [10] = target: T5, S1P5; assay: Antagonism of S1P-induced Ca2+ mobilization in S1P5-expressing HTC4 cells; type: cell-based
# P2Y10/Gα16 = P2Y10/Gα16 (Homo sapiens, UniProt O00398+P30679); assay: Antagonism of S1P-induced Ca2+ mobilization in CHO cells expressing P2Y10/Gα16; type: cell-based
# S1P1 [11] = target: T1, S1P1; assay: Receptor desensitization assay in S1P1-expressing HTC4 cells; type: cell-based; conditions: 300 nM, 2 h preincubation
# S1P1-eGFP = S1P1-eGFP (Homo sapiens, UniProt P21453); type: cell-based; conditions: 100 nM, 30 min, HEK293
# recombinant ATX = recombinant ATX (Homo sapiens, UniProt Q13822); assay: ATX assay; type: biochemical; conditions: FS-3 substrate
# C57BL/6 mice = assay: Whole blood lymphocyte counting in mice; type: in vivo; conditions: 1 mg/kg intraperitoneal
# IEC-6 cells = assay: DNA fragmentation ELISA, camptothecin-induced apoptosis; type: cell-based, rat
# [12] = tested on: ERK1/2 and AKT in IEC-6 cells; assay: Immunoblot analysis of ERK1/2 and AKT phosphorylation; type: cell-based, rat
# LPA1,2,3,4,5 and GPR87 = assay: Ca2+ mobilization in cells transfected with LPA receptors; type: cell-based; conditions: data not shown
# sphingosine kinase 1 = conditions: cited from earlier work
# [13] = shift of S1P dose response curve
# T2 sequence (O95136 whole entry, species assumed): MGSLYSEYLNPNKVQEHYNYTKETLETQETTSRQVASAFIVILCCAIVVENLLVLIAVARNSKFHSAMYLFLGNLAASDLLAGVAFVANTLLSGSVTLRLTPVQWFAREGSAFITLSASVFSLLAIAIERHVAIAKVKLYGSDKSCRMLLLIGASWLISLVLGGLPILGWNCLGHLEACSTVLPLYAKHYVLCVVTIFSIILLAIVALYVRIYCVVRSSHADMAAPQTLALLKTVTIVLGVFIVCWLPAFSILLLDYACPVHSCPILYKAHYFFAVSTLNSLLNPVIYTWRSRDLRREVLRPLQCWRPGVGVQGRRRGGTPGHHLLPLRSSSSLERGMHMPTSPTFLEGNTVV
smiles,measurement,setting,value
"CCCCCCCCc1ccc(CC[C@](N)(/C=C/P(=O)(O)O)CO)cc1 [(S)-ene, (S)-FTY720-vinylphosphonate]","S1P1 activation, agonist character (in words)",S1P1 [1],did not activate
same,S1P2 activation (in words),S1P2 [2],failed to activate
same,S1P3 activation (in words),S1P3 [3],inactive
same,S1P4 activation (in words),S1P4 [4],failed to activate
same,S1P5 activation (in words),S1P5 [5],failed to activate
same,antagonist character at S1P1,S1P1 [6]; S1P near EC70,full antagonist
same,"pKb, S1P1 (Schild analysis)",S1P1 [6]; average residual error 1.09,7.10 M
same,Ki,"S1P1 [6]; read-out: Ki, S1P1, cotreated with 3 nM S1P, ± SD",384 nM
same,"mechanism of antagonism, S1P1",S1P1 [6]; [13],competitive inhibition
same,antagonist character at S1P2,S1P2 [7]; S1P near EC70,partial antagonist
same,"maximal % inhibition of the S1P response, S1P2","S1P2 [7]; at 30, 30 nM S1P",40.0% inhibition at 30 mM (30 nM S1P)
same,antagonist character at S1P3,S1P3 [8]; S1P near EC70,full antagonist
same,"pKb, S1P3 (Schild analysis)",S1P3 [8]; average residual error 0.62,7.61 M
same,Ki,"S1P3 [8]; read-out: Ki, S1P3, cotreated with 10 nM S1P, ± SD",39 nM
same,"mechanism of antagonism, S1P3",S1P3 [8]; [13],competitive inhibition
same,antagonist character at S1P4,S1P4 [9]; S1P near EC70,full antagonist
same,Ki,"S1P4 [9]; read-out: Ki, S1P4, cotreated with 5 nM S1P, ± SD",1190 nM
same,antagonist character at S1P5,S1P5 [10]; S1P near EC70,partial antagonist
same,"maximal % inhibition of the S1P response, S1P5","S1P5 [10]; at 30, 30 nM S1P",60.0% inhibition at 30 mM (30 nM S1P)
same,"inhibition of the S1P response, P2Y10",P2Y10/Gα16; 300 nM S1P,No inhibition at 30 mM (300 nM S1P)
same,inhibitory effect on P2Y10 when co-applied with S1P,P2Y10/Gα16; concentrations up to 30 μM,no inhibitory effect
same,desensitization of the S1P1 response to S1P after preincubation,S1P1 [11],almost no effect; also recorded: did not induce
same,S1P1-eGFP receptor internalization,S1P1-eGFP,failed to cause redistribution; also recorded: did not induce; also recorded: failed to cause receptor internalization
same,mechanism of ATX inhibition,recombinant ATX,competitive
same,Ki,"recombinant ATX; read-out: Ki, ATX, affinity for free enzyme",1000 nM
same,decrease in circulating lymphocytes,C57BL/6 mice; 6 h,approximately 20%
same,circulating lymphocyte counts at 24 h,C57BL/6 mice; 24 h,restored to pretreatment levels; also recorded: no significant decrease
same,effect of PTX treatment on the antiapoptotic action,"IEC-6 cells; 100 ng/mL PTX overnight, 300 nM compound",partially inhibited
same,concentration of maximal protection against DNA fragmentation,"IEC-6 cells; 20 μM camptothecin 5 h, inverse bell-shape curve",300 nM
same,reduction in DNA fragmentation elicited by camptothecin,"IEC-6 cells; 15 min pretreatment, 20 μM camptothecin 5 h",significant and dose-dependent reduction
same,attenuation of DNA fragmentation at concentrations above 1 μM,IEC-6 cells; above 1 μM,no longer showed an attenuation
same,effect of overnight PTX treatment on ERK1/2 activation,"[12]; 100 ng/mL PTX, S1P 300 nM 5 min, (S)- or (R)-ene 1 μM 10 min",no significant effect
same,time of peak ERK1/2 and AKT phosphorylation,[12]; IEC-6 cells,5 to 15 min
same,ERK1/2 and AKT phosphorylation,"[12]; IEC-6 cells, 100 nM",elicited ERK1/2 and AKT phosphorylation
same,Ca2+ mobilization responses in cells transfected with LPA receptors,"LPA1,2,3,4,5 and GPR87",unable to detect
same,inhibition of sphingosine kinase 1,sphingosine kinase 1,inhibitor
